The values below come from US11304963B2, “Methods of medical treatment with SUR1-TRPM4 channel inhibitors” (BIOGEN CHESAPEAKE LLC, priority 2016, dated 2022).

Bounds are passed on as bounds.

A short description of series [1]: Plasma pharmacokinetics of glyburide, bolus injection followed by 72 hours continuous infusion, healthy adult subjects. To be noted: for Average plasma metabolite concentration: through 72.5 hours after the initial bolus injection; for Metabolite exposure versus administered dose of RP-1127: 0.4 mg/day vs 3.0 mg/day; for Metabolite level as share of the glyburide steady-state concentration: on average.
Procedure: The two groups are referred to as the 0.4 mg/day group and the 3.0 mg/day group, respectively.

In series [2] the test system is cerebral edema-related side effects. The series can be described thus: Clinical trial of glyburide in patients undergoing CAR-T therapy, surgical excision of a brain tumor, and/or diagnosed with cerebral edema. Format: in vivo, human. To be noted: 0.5-3.0 mg/day. The procedure:
(§1) In one arm, glyburide is administered as a bolus followed by continuous infusion.
(§2) In a second arm, glyburide is administered via a transdermal patch or gel.
(§3) In a third arm, glyburide is administered via injection, e.g., intravenous infusion.
(§4) In a fourth arm, glyburide is administered orally.
The study duration is days up to weeks.
Plasma levels of glyburide are determined daily.
The control group is matched for age, gender, and pre-operative stage.
(§5) Each patient is monitored via blood sampling and MRI. A diagnostic contrast-enhanced MRI of the brain is performed prior to inclusion in the study.
(§6) The following comparisons are made:
(§7) Occurrence of one or more cerebral edema-related side effects: • Headache • Neck pain or stiffness • Nausea or vomiting • Dizziness • Irregular breathing • Vision loss or changes • Memory loss • Inability to walk • Difficulty speaking • Stupor • Seizures • Loss of consciousness

For series [3] the test system is unchanged. The series can be described thus: Clinical trial of glyburide in patients with brain tumors or metastasis undergoing radiation therapy. Format: in vivo, human. As to conditions: 0.5-3.0 mg/day. The procedure: as §1, §2, §3, §4
The study duration is weeks to months.
Plasma levels of glyburide are determined weekly.
The control group is matched for age, gender, and pre-radiation therapy stage.
as §5, §6, §7

In a further series the test system is migraine. The series can be described thus: Clinical trial of glyburide for the prevention of migraine. Format: in vivo, human. To be noted: patients with a history of migraine; after 12 weeks of treatment; 0.5-3.0 mg/day. The procedure:
This is a randomized, double-blind, placebo-controlled, parallel Group, dose-ranging study to investigate the efficacy, safety and tolerability of glyburide for the prevention of migraine.
as §1, §2, §3, §4
The study duration is several days up to one week.
Number of migraine headache days during weeks 9-12 of the treatment period.
Change in Scores From Completeness of Response Survey (CORS) (Time Frame: Visit 1 (screening) and Visit 2 (study completion following 2-month treatment period)).
CORS scores for Pain (0-4), Associated Symptoms (0-4), Limbic/Affective Symptoms (0-5), and Speed of Return to Functionality (1-5), represent outcome measures that are relevant to patients. Higher scores represent better treatment efficacy.
The analysis compares CORS scores for usual treatment (pre-study) versus glyburide (study medication).

In a further series the test system is subjects with LHI. The series can be described thus: Mortality study in 77 subjects with LHI given Cirara and/or tPA. Format: in vivo, human. To be noted: Group 1: tPA and a placebo; 22 subjects with LHI; tPA within 4.5 hours of stroke onset. The procedure:
As used herein, the term “placebo” refers to an ostensibly pharmaceutical formulation with no pharmaceutically active agent, or lacks the particular pharmaceutical agent of interest in a given study. In the examples disclosed herein, the placebo is lacking the SUR1-TRPM4 channel inhibitor. As used herein, the term “Cirara” refers to a commercially available intravenous formulation of glyburide. In this example, tPA was administered in accordance with current clinical guidelines for managing ischemic stroke within 4.5 hours of stroke onset (Jauch et al. 2013).
The adverse outcome examined in the study was death. This was for exemplary purposes only and is not intended to be limiting.

For `COc1ccc(Cl)cc1C(=O)NCCc1ccc(S(=O)(=O)NC(=O)NC2CCCC(O)C2)cc1` (centres unmarked) [M2], in series [1] (0.4 mg/day dose group), the “Time plasma metabolite levels first detected after the initial bolus RP-1127 IV injection” value is 2 h and the “Average plasma metabolite concentration” value is recorded as at most 0.19 ng/mL. Besides, in series [1], the “Metabolite exposure versus administered dose of RP-1127” value is on record as “approximately proportional to the administered dose” and the “Metabolite level as share of the glyburide steady-state concentration” value was determined as 6%. Moreover, in series [1] (3.0 mg/day dose group), the “Time plasma metabolite levels first detected after the initial bolus RP-1127 IV injection” value turned out to be 0.333 h and the “Average plasma metabolite concentration” value is at most 1.4 ng/mL.
Consider `COc1ccc(Cl)cc1C(=O)NCCc1ccc(S(=O)(=O)NC(=O)NC2CCCCC2)cc1` [Glyburide, glyburide], for which the “Cerebral edema-related side effects compared with the control group” value in series [2] and in series [3] was “significantly reduced or inhibited” in each case. The “Migraine outcome measures compared with the placebo group” value in the series on migraine is given as “significantly improved”.
Take `COc1ccc(Cl)cc1C(=O)NCCc1ccc(S(=O)(=O)NC(=O)NC2CCC(O)CC2)cc1` (centres unmarked) [M1]: the “Time plasma metabolite levels first detected after the initial bolus RP-1127 IV injection” value in series [1] (0.4 mg/day dose group) amounted to 1 h; in series [1] (3.0 mg/day dose group), 0.167 h. The “Metabolite exposure versus administered dose of RP-1127” value in series [1] is on record as “approximately proportional to the administered dose”. Further, in series [1], the “Metabolite level as share of the glyburide steady-state concentration” value worked out at 18%.
Turning to “tPA: Tissue plasminogen activator, a class of strong blood clot dissolving medicines”, the “Mortality Rate” value with subjects with LHI was determined as 41%.
